In assay [1] the test system is melon (Cucumis melo) fruit acid form alpha-galactosidase. Put plainly: Substrate kinetics (Lineweaver-Burk) of acid alpha-galactosidase. Type of assay: biochemical, muskmelon (Cucumis melo L. cv C-8). How it is done:
For routine analysis and monitoring the activity in the purification steps, alpha-galactosidase was assayed as described by Smart and Pharr (“Characterization of alpha-galactosidase from cucumber leaves”, Plant Physiology, 66:731-734, 1980), using p-nitrophenyl alpha-galactoside (pNPG) as substrate. […] The reaction was terminated after 10 min by adding 1 ml of 5% (w/v) Na2CO3 and activity expressed as nmol nitrophenol per min as measured at 410 nm. […] The assay was started by adding 50 μl enzyme preparation at 35 C and terminated after 10 to 20 min by 2 min boiling. […] For the partial purification of the acid form of alpha-galactosidase the fractions active at pH 5.5 were pooled and concentrated by reverse dialysis against solid sucrose. […] The active fractions were then desalted by dialysis against buffer A for 12 hours with two changes of the buffer. This enzyme fraction was used for the characterization of the acidic form of alpha-galactosidase. […] The substrate specificity of the alpha-galactosidases was tested with pNPG, stachyose, raffinose, melibiose or guar gum (Sigma).

For assay [2], the target named is T1, melon (Cucumis melo) fruit alkaline alpha-galactosidase Form I (Cucumis melo, UniProt Q84NI7).
T1 sequence (Q84NI7 1-754): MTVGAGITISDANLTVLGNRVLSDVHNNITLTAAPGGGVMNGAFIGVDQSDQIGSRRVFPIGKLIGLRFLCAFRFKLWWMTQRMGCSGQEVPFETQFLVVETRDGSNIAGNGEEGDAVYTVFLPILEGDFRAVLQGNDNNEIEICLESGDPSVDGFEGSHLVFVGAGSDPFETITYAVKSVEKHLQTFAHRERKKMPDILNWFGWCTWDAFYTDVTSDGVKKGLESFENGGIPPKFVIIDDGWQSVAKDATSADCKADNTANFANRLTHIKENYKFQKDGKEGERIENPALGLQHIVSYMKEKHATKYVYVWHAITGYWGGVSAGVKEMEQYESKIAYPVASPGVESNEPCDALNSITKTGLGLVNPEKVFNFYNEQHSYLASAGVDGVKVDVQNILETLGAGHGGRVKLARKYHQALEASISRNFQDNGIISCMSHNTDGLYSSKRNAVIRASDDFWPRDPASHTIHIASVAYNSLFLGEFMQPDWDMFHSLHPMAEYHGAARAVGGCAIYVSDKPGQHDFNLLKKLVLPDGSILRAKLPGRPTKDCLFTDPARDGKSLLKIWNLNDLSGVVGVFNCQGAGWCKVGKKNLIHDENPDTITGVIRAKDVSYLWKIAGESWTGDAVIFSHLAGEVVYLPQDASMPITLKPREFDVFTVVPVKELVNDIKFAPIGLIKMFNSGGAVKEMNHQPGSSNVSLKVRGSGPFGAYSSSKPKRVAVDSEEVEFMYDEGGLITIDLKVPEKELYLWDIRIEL
Kind of assay: Substrate kinetics (Lineweaver-Burk) of alkaline alpha-galactosidase Form I. How it is done:
For routine analysis and monitoring the activity in the purification steps, alpha-galactosidase was assayed as described by Smart and Pharr (“Characterization of alpha-galactosidase from cucumber leaves”, Plant Physiology, 66:731-734, 1980), using p-nitrophenyl alpha-galactoside (pNPG) as substrate. Reaction was initiated by adding 50 μl enzyme aliquot to either 200 μl 100 mM pH 5.5 McIlvaine buffer or 100 mM pH 7.5 HEPES buffer, containing 5 mM pNPG at 35 C. The reaction was terminated after 10 min by adding 1 ml of 5% (w/v) Na2CO3 and activity expressed as nmol nitrophenol per min as measured at 410 nm. […] The assay was started by adding 50 μl enzyme preparation at 35 C and terminated after 10 to 20 min by 2 min boiling.
The fractions from the DEAE-Sepharose chromatography which were active at pH 7.5 were pooled and dialyzed against buffer A for 12 h prior to loading onto an HPLC ion exchange chromatography column (Mono-Q HR 5/5, Pharmacia, Uppsala, Sweden), previously equilibrated with buffer A. Bound proteins were eluted with a linear gradient of 0.1 to 0.45 M NaCl and the active fractions were detected using pNPG as substrate at pH 7.5 as described above. […] For the further purification of Form II the active fractions of the peak II were chromatographed on hydrophobic interaction chromatography. The fractions were pooled, brought to 1 M (NH4)2SO4 and loaded on to a hydrophobic interaction column (phenyl-Sepharose CL-4B, 0.5×12 cm, Pharmacia, Uppsala, Sweden) previously equilibrated with buffer A containing 1 M (NH4)2SO4. The protein was eluted with a reverse stepwise gradient from 1 to 0 M (NH4)2SO4 with 50 mM intervals in buffer A. Fractions containing the activity peak were collected and dialyzed for 12 h against buffer A and the dialysate was concentrated by reverse dialysis against solid sucrose. The enzyme, partially purified by hydrophobic interaction chromatography, was used for the characterization of Form II. The active fractions from the hydrophobic interaction column were further purified. Active fractions were separated electrophoretically using a Mini Prep Cell (Bio-Rad Laboratories, Hercules, Calif.) for discontinuous native-PAGE with 7% polyacrylamide, according to manufacturer's instructions. Fractions (0.25 ml/fraction) were assayed at pH 7.5 with pNPG as substrate for the activity. The active fractions were pooled, concentrated by Vivaspin Concentrator (Vivascience LTD, Lincoln, England), and run in a 8% SDS-PAGE. Proteins in the SDS-PAGE were identified using Coomassie Blue staining.
Therefore, the active fractions from the Mono-Q column were used for the characterization of Form I. In addition, the Form I enzyme was further purified, as described in the following section.

In assay [3] the test system is Cucurbita pepo leaf alkaline alpha-galactosidase ("LIV" enzyme). Put plainly: Substrate kinetics of Cucurbita pepo leaf alkaline alpha-galactosidase (Gaudreault and Webb). Type of assay: biochemical. As to conditions: calculated for prior art "LIV" enzyme of Gaudreault and Webb.
For assay [4] the test system is unchanged. As to conditions: Gaudreault and Webb; alkaline form; cited from earlier work.

Take `OC[C@H]1O[C@H](OC[C@H]2O[C@H](OC[C@H]3O[C@H](O[C@]4(CO)O[C@H](CO)[C@@H](O)[C@@H]4O)[C@H](O)[C@@H](O)[C@@H]3O)[C@H](O)[C@@H](O)[C@H]2O)[C@H](O)[C@@H](O)[C@H]1O` [Stachyose, O-alpha-D-galactopyranosyl-(1-6)-O-alpha-D-galactopyranosyl-(1-6)-O-alpha-D-glucopyranosyl-(1-2)-beta-D-fructofuranoside]: the Vmax/Km ratio is given as 0.02 in assay [1], 0.06 in assay [2] and 0.65 in assay [3]. The Km in assay [1] (Lineweaver-Burk) is 10.5 mM; in assay [4] it was 4.5 mM. Further, the Vmax in assay [1] (Lineweaver-Burk) worked out at 0.23 μmol mg^−1 protein min^−1; in assay [2] (Lineweaver-Burk) it was 0.24 μmol mg^−1 protein min^−1.

By Km is commonly meant the concentration of substrate that gives half-maximal velocity.

Source of the values: patent US7514254B2, “Plant-derived alkaline alpha-galactosidase” (The State of Israel, Ministry of Agriculture & Rural …, priority 1998, dated 2009).
